≈ marks a conversion by molar mass, not a printed value.

This passage reports IC50 results from ChEMBL document CHEMBL1132766, “Synthesis and antiamoebic activity of new cyclooctadiene ruthenium(II) complexes with 2-acetylpyridine and benzimidazole derivatives” (Bioorg Med Chem Lett, 2000).

For this assay, the system named is Entamoeba histolytica. Kind of assay: Tested for antiamoebic activity against HK-9 strain of Entamoeba histolytica. It counts as functional, organism-based.
As a reminder, the IC50 is the concentration that inhibits the measured activity by half. As to `CS/C(S)=N/N=C(\C)c1ccccn1`, the IC50 came out at 0.38 µg/mL (≈ 1.69 µM).

`Cc1ncc([N+](=O)[O-])n1CCO` [METRONIDAZOLE]: inhibition was half-maximal at 0.33 µg/mL (≈ 1.93 µM) (IC50).

`C/C(=N\NC(N)=S)c1ccccn1` yielded an IC50 of 0.31 µg/mL (≈ 1.6 µM).

With `C/C(=N\N=C(/S)SCc1ccccc1)c1ccccn1`, 0.4 µg/mL (≈ 1.33 µM) corresponded to half-maximal inhibition (IC50).

`c1ccc(-c2nc3ccccc3[nH]2)nc1`: 0.42 µg/mL (≈ 2.15 µM) corresponded to half-maximal inhibition (IC50). The IC50 values of the last two molecules are within 1.5-fold of each other.
